From US20090311217A1, “3-SUBSTITUTED-1H-INDOLE COMPOUNDS, THEIR USE AS MTOR KINASE AND PI3 KINASE INHIBITORS, AND THEIR SYNTHESES” (priority 2008, published 2009) come the findings set out here.

Like-named read-outs stand apart in the source and are kept apart here.

The target in one assay is PI3K-gamma (Homo sapiens, UniProt P48736). The assay is described as follows: PI3K-gamma fluorescence polarization assay. The format is biochemical. In short, it runs like this:
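Each isoform (5 ng) phosphorylated 2.5 μM diC8-PI(4,5)P2 at 25 μM ATP for one hour at 25° C in the presence of inhibitor. Reactions were then stopped with EDTA, and product was detected by fluorescence polarization using a GST-GRP1 PH domain and a BODIPY-TMR-labelled IP4 tracer.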

Another assay concerns the target PI3K-alpha (Homo sapiens, UniProt P42336). The assay is described as follows: PI3K-alpha fluorescence polarization assay. The settings on record: read-out: PI3Kα Avg. IC50. It is filed as biochemical. (Fluorescence polarisation rises when a labelled molecule tumbles more slowly, as on binding a larger partner.)

Chain of PI3K-gamma (P48736 whole entry, species assumed, the tested form may be a part, canonical isoform): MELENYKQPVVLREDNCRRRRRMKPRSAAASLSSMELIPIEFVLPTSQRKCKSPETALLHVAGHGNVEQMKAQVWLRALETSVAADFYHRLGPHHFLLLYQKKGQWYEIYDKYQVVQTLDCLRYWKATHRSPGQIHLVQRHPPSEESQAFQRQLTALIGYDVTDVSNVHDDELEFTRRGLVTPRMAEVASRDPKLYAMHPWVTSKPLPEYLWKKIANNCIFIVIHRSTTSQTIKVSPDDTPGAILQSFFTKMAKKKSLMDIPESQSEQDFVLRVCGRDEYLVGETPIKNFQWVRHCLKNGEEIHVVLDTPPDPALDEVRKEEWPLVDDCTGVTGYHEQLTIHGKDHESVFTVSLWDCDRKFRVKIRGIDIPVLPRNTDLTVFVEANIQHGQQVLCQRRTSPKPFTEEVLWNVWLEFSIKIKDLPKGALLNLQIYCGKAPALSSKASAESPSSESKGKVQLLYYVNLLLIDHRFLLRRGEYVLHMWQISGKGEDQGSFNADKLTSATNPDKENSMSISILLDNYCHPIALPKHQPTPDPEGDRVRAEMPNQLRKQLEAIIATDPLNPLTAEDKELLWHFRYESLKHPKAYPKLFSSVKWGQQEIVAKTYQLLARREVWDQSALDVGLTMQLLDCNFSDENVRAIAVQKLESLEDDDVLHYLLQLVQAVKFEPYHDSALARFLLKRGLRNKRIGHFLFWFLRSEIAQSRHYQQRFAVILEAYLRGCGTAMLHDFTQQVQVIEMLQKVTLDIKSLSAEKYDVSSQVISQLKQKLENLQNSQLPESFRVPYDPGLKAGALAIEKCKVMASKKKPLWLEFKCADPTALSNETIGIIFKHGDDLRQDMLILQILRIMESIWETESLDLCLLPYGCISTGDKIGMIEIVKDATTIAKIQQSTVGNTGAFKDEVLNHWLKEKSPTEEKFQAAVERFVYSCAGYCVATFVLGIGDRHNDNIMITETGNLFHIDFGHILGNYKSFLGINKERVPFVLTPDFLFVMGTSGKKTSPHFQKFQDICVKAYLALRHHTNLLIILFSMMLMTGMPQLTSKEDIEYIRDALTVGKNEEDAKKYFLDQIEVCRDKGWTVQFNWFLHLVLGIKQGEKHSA
Chain of PI3K-alpha (P42336 whole entry, species assumed): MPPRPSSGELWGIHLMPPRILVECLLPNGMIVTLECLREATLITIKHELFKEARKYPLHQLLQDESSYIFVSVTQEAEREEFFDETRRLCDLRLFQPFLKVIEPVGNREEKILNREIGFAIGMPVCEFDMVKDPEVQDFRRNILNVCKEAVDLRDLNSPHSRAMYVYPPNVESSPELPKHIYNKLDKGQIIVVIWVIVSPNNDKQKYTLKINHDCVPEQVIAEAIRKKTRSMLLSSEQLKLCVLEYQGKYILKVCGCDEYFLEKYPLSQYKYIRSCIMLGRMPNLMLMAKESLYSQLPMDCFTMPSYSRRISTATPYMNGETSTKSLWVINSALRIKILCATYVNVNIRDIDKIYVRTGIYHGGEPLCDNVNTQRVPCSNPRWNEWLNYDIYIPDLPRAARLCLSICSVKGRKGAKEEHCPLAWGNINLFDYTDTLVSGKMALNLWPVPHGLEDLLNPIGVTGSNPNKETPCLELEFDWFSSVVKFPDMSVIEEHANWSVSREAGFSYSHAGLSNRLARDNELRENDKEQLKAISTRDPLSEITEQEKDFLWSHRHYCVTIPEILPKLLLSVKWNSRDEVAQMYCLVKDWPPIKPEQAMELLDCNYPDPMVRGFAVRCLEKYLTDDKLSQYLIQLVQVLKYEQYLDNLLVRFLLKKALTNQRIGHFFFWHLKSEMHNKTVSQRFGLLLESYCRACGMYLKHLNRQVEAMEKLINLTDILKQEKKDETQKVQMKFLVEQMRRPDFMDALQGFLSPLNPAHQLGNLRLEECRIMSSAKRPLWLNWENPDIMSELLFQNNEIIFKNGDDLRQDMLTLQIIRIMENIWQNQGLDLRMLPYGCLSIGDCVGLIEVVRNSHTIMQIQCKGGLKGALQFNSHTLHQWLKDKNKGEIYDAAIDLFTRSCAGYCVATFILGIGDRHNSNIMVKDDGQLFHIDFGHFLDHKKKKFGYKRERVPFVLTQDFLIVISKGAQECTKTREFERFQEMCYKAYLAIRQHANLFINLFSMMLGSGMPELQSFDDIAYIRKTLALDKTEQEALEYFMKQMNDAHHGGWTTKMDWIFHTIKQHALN
Chain of PI3K-alpha (P27986 whole entry partner, species assumed): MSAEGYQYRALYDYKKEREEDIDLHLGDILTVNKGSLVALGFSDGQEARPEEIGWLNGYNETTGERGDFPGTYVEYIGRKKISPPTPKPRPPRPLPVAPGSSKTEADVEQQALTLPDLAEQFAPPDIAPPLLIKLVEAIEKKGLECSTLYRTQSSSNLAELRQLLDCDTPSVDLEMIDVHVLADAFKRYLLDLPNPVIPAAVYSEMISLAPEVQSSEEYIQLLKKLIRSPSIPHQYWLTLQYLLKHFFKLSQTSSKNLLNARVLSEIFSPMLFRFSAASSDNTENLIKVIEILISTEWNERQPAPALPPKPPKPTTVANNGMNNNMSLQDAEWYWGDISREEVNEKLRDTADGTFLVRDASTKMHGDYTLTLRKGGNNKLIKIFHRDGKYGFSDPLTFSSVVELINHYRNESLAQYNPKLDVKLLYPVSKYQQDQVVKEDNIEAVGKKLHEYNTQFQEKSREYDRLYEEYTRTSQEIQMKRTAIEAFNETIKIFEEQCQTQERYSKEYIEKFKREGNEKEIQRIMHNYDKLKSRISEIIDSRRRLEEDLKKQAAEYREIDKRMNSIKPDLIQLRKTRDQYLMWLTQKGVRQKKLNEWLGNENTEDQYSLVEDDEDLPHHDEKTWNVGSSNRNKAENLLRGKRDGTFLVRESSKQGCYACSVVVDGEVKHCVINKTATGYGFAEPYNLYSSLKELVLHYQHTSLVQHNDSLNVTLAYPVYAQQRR

For orientation: IC50 means the concentration that gives 50% inhibition. `CNC(=O)Nc1ccc2c(c1)C(=O)/C(=C/c1c(C(=O)N(C)C)[nH]c3ccc(OC)cc13)O2` [Compound 600, 5-methoxy-N,N-dimethyl-3-[(Z)-{5-[(methylcarbamoyl)amino]-3-oxo-1-benzofuran-2(3H)-ylidene}methyl]-1H-indole-2-carboxamide]: the values for the IC50 at PI3K-gamma (PI3Kγ Avg. IC50) and at PI3K-alpha were 0.129 µM and 0.024 µM, respectively.

Take `COc1ccc2c(c1)c(C=C1Oc3cccc(O)c3C1=O)c(C)n2CCCCCl` [Example 123, 2-{[1-(4-chlorobutyl)-5-methoxy-2-methyl-1H-indol-3-yl]methylene}-4-hydroxy-1-benzofuran-3(2H)-one]: the IC50 against PI3K-gamma (PI3Kγ Avg. IC50) was over 10 µM; on PI3K-alpha it was 1.22 µM.

As for `CNC(=O)Nc1ccc2c(c1)C(=O)/C(=C/c1c(-c3cccnc3)n(CCN3CCN(C)CC3)c3ccc(OC)cc13)O2` [Compound 596, 1-[(2Z)-2-({5-methoxy-1-[2-(4-methylpiperazin-1-yl)ethyl]-2-pyridin-3-yl-1Hindol-3-yl}methylene)-3-oxo-2,3-dihydro-1-benzofuran-5-yl]-3-methylurea], the IC50 is 0.279 µM against PI3K-gamma (PI3Kγ Avg. IC50) and 0.0017 µM at PI3K-alpha.

On to `COc1ccc2[nH]cc(/C=C3\Oc4cc(O)cc(OC)c4C3=O)c2c1` [Compound 472, (2Z)-6-hydroxy-4-methoxy-2-[(5-methoxy-1H-indol-3-yl)methylene]-1-benzofuran-3(2H)-one], for which the IC50 at PI3K-gamma (PI3Kγ Avg. IC50) is 1.13 µM; at PI3K-alpha it was 0.163 µM.

For the molecule `COc1ccc(NC(=O)Nc2ccc3c(c2)C(=O)/C(=C/c2c[nH]c4ccc(OC)cc24)O3)cc1` [Compound 491, 1-{(2Z)-2-[(5-methoxy-1H-indol-3-yl)methylene]-3-oxo-2,3-dihydro-1-benzofuran-5-yl}-3-(4-methoxyphenyl)urea], the values for the IC50 at PI3K-gamma (PI3Kγ Avg. IC50) and on PI3K-alpha were 1.31 µM and 0.465 µM, respectively.

As to `CNC(=O)Nc1ccc2c(c1)C(=O)/C(=C/c1c(C3CC3)n(CCN3CCN(C)CC3)c3ccc(OC)cc13)O2` [Compound 559, 1-[(2Z)-2-({2-cyclopropyl-5-methoxy-1-[2-(4-methylpiperazin-1-yl)ethyl]-1Hindol-3-yl}methylene)-3-oxo-2,3-dihydro-1-benzofuran-5-yl]-3-methylurea], the IC50 is 0.537 µM at PI3K-gamma (PI3Kγ Avg. IC50) and 0.00225 µM on PI3K-alpha.

For the molecule `COc1ccc2[nH]c(C)c(CC3Oc4cc(O)cc(O)c4C3=O)c2c1` (stereo not shown) [Example 119, 4,6-dihydroxy-2-[(5-methoxy-2-methyl-1H-indol-3-yl)methyl]-1-benzofuran-3(2H)-one], the results for the IC50 against PI3K-gamma (PI3Kγ Avg. IC50) and at PI3K-alpha were over 10 µM and 3.83 µM, respectively.

`COc1ccc2[nH]cc(C=C3Oc4c(OC)cccc4C3=O)c2c1` [Compound 483, 7-methoxy-2-[(5-methoxy-1H-indol-3-yl)methylene]-1-benzofuran-3(2H)-one]: the IC50 at PI3K-gamma (PI3Kγ Avg. IC50) came out at 5.22 µM; at PI3K-alpha, 9.86 µM.

`CNC(=O)Nc1ccc2c(c1)C(=O)/C(=C/c1c(CN(C)CCN(C)C)[nH]c3ccc(OC)cc13)O2` [Compound 613, 1-[(2Z)-2-{[2-({[2-(dimethylamino)ethyl](methyl)amino}methyl)-5-methoxy-1Hindol-3-yl]methylidene}-3-oxo-2,3-dihydro-1-benzofuran-5-yl]-3-methylurea]: the IC50 at PI3K-gamma (PI3Kγ Avg. IC50) came to 0.153 µM; on PI3K-alpha, 0.0125 µM.

With `CNC(=O)Nc1ccc2c(c1)C(=O)/C(=C/c1c(C3CCC3)n(CCN3CCN(C)CC3)c3ccc(OC)cc13)O2` [Compound 562, 1-[(2Z)-2-({2-cyclobutyl-5-methoxy-1-[2-(4-methylpiperazin-1-yl)ethyl]-1H-indol-3-yl}methylene)-3-oxo-2,3-dihydro-1-benzofuran-5-yl]-3-methylurea], the IC50 on PI3K-gamma (PI3Kγ Avg. IC50) came out at 0.209 µM; at PI3K-alpha, 0.00285 µM.

`CNC(=O)Nc1ccc2c(c1)C(=O)/C(=C/c1c(C)n(CCCN3CCC(O)C3)c3ccc(OC)cc13)O2` (stereo not shown) [Compound 589, 1-[(2Z)-2-({1-[3-(3-hydroxypyrrolidin-1-yl)propyl]-5-methoxy-2-methyl-1H-indol-3-yl}methylene)-3-oxo-2,3-dihydro-1-benzofuran-5-yl]-3-methylurea]: the IC50 against PI3K-gamma (PI3Kγ Avg. IC50) came out at 0.967 µM; at PI3K-alpha it was 0.0045 µM.

For the molecule `COc1ccc2c(c1)c(/C=C1\Oc3cc(O)cc(O)c3C1=O)cn2CCCC#N` [Compound 510, 4-{3-[(Z)-(4,6-dihydroxy-3-oxo-1-benzofuran-2(3H)-ylidene)methyl]-5-methoxy-1Hindol-1-yl}butanenitrile], the IC50 against PI3K-gamma (PI3Kγ Avg. IC50) was found to be 0.056 µM; at PI3K-alpha it was 0.008 µM.

Turning to `Cn1cc(/C=C2\Oc3ccc(NC(=O)OC(C)(C)C)cc3C2=O)c2c(-c3ccccc3)cccc21` [Compound 532, tert-butyl {(2Z)-2-[(1-methyl-4-phenyl-1H-indol-3-yl)methylene]-3-oxo-2,3-dihydro-1-benzofuran-5-yl}carbamate], the IC50 against PI3K-gamma (PI3Kγ Avg. IC50) and at PI3K-alpha was over 10 µM each time.

In the case of `CNC(=O)Nc1ccc2c(c1)C(=O)/C(=C/c1c(C(=O)N(C)CCN(C)C)[nH]c3ccc(OC)cc13)O2` [Compound 602, N-[2-(dimethylamino)ethyl]-5-methoxy-N-methyl-3-[(Z)-{5-[(methylcarbamoyl)amino]-3-oxo-1-benzofuran-2(3H)-ylidene}methyl]-1H-indole-2-carboxamide], the IC50 against PI3K-gamma (PI3Kγ Avg. IC50) is 0.316 µM; on PI3K-alpha it was 0.0405 µM.

Turning to `COc1cc(-c2cncnc2)c2c(c1)c(/C=C1\Oc3cc(O)ccc3C1=O)cn2CCCC#N` [Compound 501, 4-{3-[(Z)-(6-hydroxy-3-oxo-1-benzofuran-2(3H)-ylidene)methyl]-5-methoxy-7-pyrimidin-5-yl-1H-indol-1-yl}butanenitrile], the IC50 against PI3K-gamma (PI3Kγ Avg. IC50) worked out at 7 µM; on PI3K-alpha, 0.701 µM.

Take `COc1cccc2c1O/C(=C\c1c[nH]c3ccc(Br)cc13)C2=O` [Compound 481, (2Z)-2-[(5-bromo-1H-indol-3-yl)methylene]-7-methoxy-1-benzofuran-3(2H)-one]: the IC50 at PI3K-gamma (PI3Kγ Avg. IC50) and on PI3K-alpha was over 10 µM each time.

“4-hydroxy-2-{[5-methoxy-2-methyl-1-(2-morpholin-4-ylethyl)-1H-indol-3-yl]methylene}-1-benzofuran-3(2H)-one [Example 130]”: the IC50 at PI3K-gamma (read-out: PI3Kγ Avg. IC50) amounted to 4.13 µM; on PI3K-alpha, 0.65 µM.

`COc1ccc2c(c1)c(/C=C1\Oc3ccc(NC(N)=O)cc3C1=O)cn2CCN1CCN(C)CC1` [Compound 551, 1-[(2Z)-2-({5-methoxy-1-[2-(4-methylpiperazin-1-yl)ethyl]-1H-indol-3-yl}methylene)-3-oxo-2,3-dihydro-1-benzofuran-5-yl]urea]: the IC50 stood at 3.15 µM on PI3K-gamma (PI3Kγ Avg. IC50) and 0.192 µM at PI3K-alpha.

Turning to `CNC(=O)Nc1ccc2c(c1)C(=O)/C(=C/c1c(C)n(CCCN3CCCC3)c3ccc(OC)cc13)O2` [Compound 597, 1-[(2Z)-2-{[5-methoxy-2-methyl-1-(3-pyrrolidin-1-ylpropyl)-1H-indol-3-yl]methylidene}-3-oxo-2,3-dihydro-1-benzofuran-5-yl]-3-methylurea], the IC50 at PI3K-gamma (PI3Kγ Avg. IC50) came to 0.448 µM; at PI3K-alpha, 0.0035 µM.

As for `COc1ccc2c(c1)c(/C=C1\Oc3ccc(NC(=O)NC4CC4)cc3C1=O)cn2CCCN(C)C` [Compound 560, 1-cyclopropyl-3-[(2Z)-2-({1-[3-(dimethylamino)propyl]-5-methoxy-1H-indol-3-yl}methylene)-3-oxo-2,3-dihydro-1-benzofuran-5-yl]urea], the results for the IC50 at PI3K-gamma (PI3Kγ Avg. IC50) and on PI3K-alpha were 1.6 µM and 0.133 µM, respectively.
